The source made the active and inactive calls.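 The calls were made as follows: active = combined score above 52 from an acceptable curve fit, favoring EC50 below 10 µM and curve height over 20%; inactive = the rest.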
biological target: ATP-dependent translocase ABCB1 (Homo sapiens) (UniProt P08183); assay: ABCB1 efflux inhibition concentration-response, dose response, Jurkat-DNR cells, JC-1, flow cytometry, follow-up (AID 489002); settings: JC-1 efflux
Sequence (P08183 whole entry, looked up): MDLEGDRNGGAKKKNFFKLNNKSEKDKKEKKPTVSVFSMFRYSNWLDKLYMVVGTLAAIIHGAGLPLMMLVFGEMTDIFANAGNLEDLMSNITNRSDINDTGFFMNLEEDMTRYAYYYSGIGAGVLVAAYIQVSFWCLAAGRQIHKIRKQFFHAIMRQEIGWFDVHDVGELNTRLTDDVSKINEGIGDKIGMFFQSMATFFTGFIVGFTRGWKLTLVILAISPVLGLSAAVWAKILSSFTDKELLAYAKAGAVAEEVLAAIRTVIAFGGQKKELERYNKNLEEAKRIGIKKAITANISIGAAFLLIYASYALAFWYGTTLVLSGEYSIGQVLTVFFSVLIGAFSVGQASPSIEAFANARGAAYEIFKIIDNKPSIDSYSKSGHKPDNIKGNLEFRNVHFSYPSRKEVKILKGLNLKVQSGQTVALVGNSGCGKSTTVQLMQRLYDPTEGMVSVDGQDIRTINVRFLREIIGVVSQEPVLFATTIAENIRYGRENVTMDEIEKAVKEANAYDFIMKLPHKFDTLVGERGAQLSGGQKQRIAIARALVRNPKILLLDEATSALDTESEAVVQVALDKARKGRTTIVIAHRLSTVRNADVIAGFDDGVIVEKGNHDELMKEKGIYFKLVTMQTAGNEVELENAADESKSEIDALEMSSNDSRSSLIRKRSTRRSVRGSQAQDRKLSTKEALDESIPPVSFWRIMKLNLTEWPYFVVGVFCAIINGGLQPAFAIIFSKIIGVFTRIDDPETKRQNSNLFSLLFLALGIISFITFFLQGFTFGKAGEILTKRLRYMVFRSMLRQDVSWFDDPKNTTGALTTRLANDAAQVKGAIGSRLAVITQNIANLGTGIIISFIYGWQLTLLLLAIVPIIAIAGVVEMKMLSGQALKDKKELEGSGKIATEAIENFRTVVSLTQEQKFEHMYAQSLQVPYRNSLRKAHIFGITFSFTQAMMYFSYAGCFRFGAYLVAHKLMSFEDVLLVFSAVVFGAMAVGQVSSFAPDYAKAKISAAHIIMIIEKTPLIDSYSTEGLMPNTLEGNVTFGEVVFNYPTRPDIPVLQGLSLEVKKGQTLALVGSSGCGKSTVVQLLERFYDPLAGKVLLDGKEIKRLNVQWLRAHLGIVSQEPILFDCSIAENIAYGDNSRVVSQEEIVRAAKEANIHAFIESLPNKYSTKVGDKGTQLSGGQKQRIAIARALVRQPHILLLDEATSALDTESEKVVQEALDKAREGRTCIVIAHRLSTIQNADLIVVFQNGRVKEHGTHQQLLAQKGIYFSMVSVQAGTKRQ

EC50	SMILES
2.05 µM	COc1ccc(-c2cc3nc(-c4ccccc4)cc(N4CCN(C(=O)c5ccoc5)CC4)n3n2)cc1
5.44 µM	CC(=O)N1CCN(c2cc(-c3ccco3)nc3cc(-c4ccccc4)nn23)CC1
inactive	Cc1cc(N2CCN(C(=O)C3CCCO3)CC2)n2nc(-c3cccc(F)c3)cc2n1 (stereo not given)
10.5 µM	O=C(c1ccoc1)N1CCN(c2cc(-c3ccccc3F)nc3cc(-c4ccccc4)nn23)CC1
3.84 µM	c1ccc(CN2CCN(c3cc(-c4ccco4)nc4cc(-c5ccccc5)nn34)CC2)cc1
4.78 µM	COc1ccc(-c2cc3nc(C)c(C)c(N4CCN(C(=O)c5ccco5)CC4)n3n2)cc1
1.85 µM	O=C(c1ccco1)N1CCN(c2c3c(nc4cc(-c5ccc(F)cc5)nn24)CCC3)CC1
9.8 µM	O=C(c1ccoc1)N1CCN(c2cc(-c3ccco3)nc3cc(-c4cccs4)nn23)CC1
6.45 µM	O=C(c1ccoc1)N1CCN(c2cc(-c3cccc(F)c3)nc3cc(-c4cccc(Cl)c4)nn23)CC1
inactive	COc1ccc(-c2[nH]nc3nc(N4CCN(C(=O)c5ccoc5)CC4)cc(C(F)(F)F)c23)cc1
1.93 µM	Cc1nc2cc(-c3ccc4c(c3)OCO4)nn2c(N2CCN(C(=O)c3ccoc3)CC2)c1C
9.92 µM	O=C(c1ccoc1)N1CCN(c2cc(-c3ccccc3)nc3cc(-c4ccncc4)nn23)CC1
inactive	CC1CN(C(=O)OC(C)(C)C)CCN1c1cc(-c2ccco2)nc2cc(-c3ccccc3)nn12 (stereo not given)
3.54 µM	COc1cccc(-c2cc(N3CCN(C(=O)c4ccoc4)CC3)n3nc(-c4cccc(OC)c4)cc3n2)c1
7.07 µM	COc1cccc(-c2cc3nc(-c4ccccc4)cc(N4CCN(C(=O)c5ccoc5)CC4)n3n2)c1
inactive	CC(C)(C)c1cc(N2CCN(C(=O)c3ccoc3)CC2)n2nc(-c3ccccc3)cc2n1
10.2 µM	COc1cccc(-c2cc3nc(C)c(C(C)C)c(N4CCN(C(=O)c5ccoc5)CC4)n3n2)c1
4.08 µM	COc1ccc(-c2cc3nc(C)c(C)c(N4CCN(C(=O)c5ccoc5)CC4)n3n2)cc1
5.69 µM	O=C(c1ccsc1)N1CCN(c2cc(-c3ccco3)nc3cc(-c4ccccc4)nn23)CC1
3.03 µM	O=C(OCc1ccccc1)N1CCN(c2cc(-c3ccco3)nc3cc(-c4ccccc4)nn23)CC1

EC50	SMILES
4.86 µM	COc1ccc(-c2cc3nc(-c4ccco4)cc(N4CCN(C(=O)c5ccoc5)CC4)n3n2)cc1
6.48 µM	Cc1c(-c2ccco2)nc2cc(-c3ccccc3)nn2c1N1CCN(C(=O)c2ccoc2)CC1
2.34 µM	COc1cccc(-c2cc3nc(-c4cccc(C#N)c4)cc(N4CCN(C(=O)c5ccoc5)CC4)n3n2)c1
inactive	O=C(C1CCCO1)N1CCN(c2c3c(nc4cc(-c5cccc(F)c5)nn24)CCCC3)CC1 (stereo not given)
10.3 µM	COc1ccccc1-c1cc2nc(-c3ccco3)cc(N3CCN(C(=O)c4ccoc4)CC3)n2n1
5.15 µM	O=C(c1ccoc1)N1CCN(c2cc(-c3ccco3)nc3cc(-c4cccc(-c5ccco5)c4)nn23)CC1
inactive	O=C(c1ccoc1)N1CCN(c2cc(-c3ccco3)nc3cc(-c4ccc(Cl)cc4)nn23)CC1
inactive	O=C(c1ccoc1)N1CCN(c2cc(-c3ccco3)nc3cc(-c4cccc(Cl)c4)nn23)CC1
inactive	Cc1ccc(-c2cc(N3CCN(C(=O)c4ccoc4)CC3)n3nc(-c4ccccc4)cc3n2)o1
4.6 µM	O=C(c1ccoc1)N1CCN(c2cc(-c3ccco3)nc3cc(-c4ccccc4)nn23)CC1
inactive	O=C(c1ccoc1)N1CCN(c2cc(-c3ccoc3)nc3cc(-c4ccccc4)nn23)CC1
3.97 µM	CC(=O)N1CCN(c2cc(-c3ccco3)nc3cc(-c4cccc(Cl)c4)nn23)CC1
1.84 µM	COc1cc(OC)cc(-c2cc3nc(C)c(C)c(N4CCN(C(=O)c5ccoc5)CC4)n3n2)c1
8.33 µM	O=C(c1ccoc1)N1CCN(c2cc(-c3cccs3)nc3cc(-c4ccccc4)nn23)CC1
inactive	c1ccc(-c2cc3nc(-c4ccco4)cc(N4CCNCC4)n3n2)cc1
2.97 µM	COC(=O)c1cccc(-c2cc(N3CCN(C(=O)c4ccoc4)CC3)n3nc(-c4cccc(OC)c4)cc3n2)c1
inactive	O=C(c1coc2ccccc12)N1CCN(c2cc(-c3ccco3)nc3cc(-c4ccccc4)nn23)CC1
11.8 µM	COc1cccc(-c2cc3nc(C)c(C)c(N4CCN(C(=O)c5ccco5)CC4)n3n2)c1
inactive	O=C(c1ccoc1)N1CCCN(c2cc(-c3ccco3)nc3cc(-c4ccccc4)nn23)C1
inactive	O=C(c1ccoc1)N1CCN(c2cc(-c3cccc(F)c3)nc3cc(-c4ccccc4)nn23)CC1

EC50	SMILES
inactive	Cc1nc2cc(-c3ccncc3)nn2c(N2CCN(C(=O)c3ccoc3)CC2)c1C
inactive	COc1ccc(-c2cc(N3CCN(C(=O)c4ccoc4)CC3)n3nc(-c4ccccc4)cc3n2)cc1
2.03 µM	O=C(c1ccoc1)N1CCN(c2cc(-c3ccco3)nc3cc(-c4ccco4)nn23)CC1
inactive	Cc1ccc(-c2cc3nc(-c4ccco4)cc(N4CCN(C(=O)c5ccoc5)CC4)n3n2)cc1
inactive	CN(CCCN(C)c1cc(-c2ccco2)nc2cc(-c3ccccc3)nn12)C(=O)c1ccoc1
6.61 µM	O=C1CN(c2cc(-c3ccco3)nc3cc(-c4ccccc4)nn23)CCN1c1ccccc1
8.53 µM	O=C(c1ccco1)N1CCN(c2cc(-c3ccco3)nc3cc(-c4ccccc4)nn23)CC1
2.19 µM	Cc1nc2cc(-c3ccccc3)nn2c(N2CCN(C(=O)c3ccoc3)CC2)c1C
inactive	Cc1cccc(-c2cc3nc(-c4ccco4)cc(N4CCN(C(=O)c5ccoc5)CC4)n3n2)c1
15.3 µM	COc1ccccc1-c1cc(N2CCN(C(=O)c3ccoc3)CC2)n2nc(-c3ccccc3)cc2n1
4.77 µM	COc1cccc(-c2cc3nc(-c4ccccc4)c(C)c(N4CCN(C(=O)c5ccoc5)CC4)n3n2)c1
inactive	Cc1nc2cc(-c3cccc(Cl)c3)nn2c(N2CCN(C(=O)c3ccoc3)CC2)c1C
11.8 µM	Cc1occc1C(=O)N1CCN(c2cc(-c3ccco3)nc3cc(-c4ccccc4)nn23)CC1
inactive	CNCCCN(C)c1cc(-c2ccco2)nc2cc(-c3ccccc3)nn12
12.8 µM	COc1cccc(-c2cc3nc(C)c(C)c(N4CCN(C(=O)c5ccoc5)CC4)n3n2)c1
inactive	Cc1nc2cc(-c3ccc(Br)cc3)nn2c(N2CCN(C(=O)c3ccoc3)CC2)c1C
inactive	CC(C)(C)OC(=O)N1CCN(c2cc(-c3ccco3)nc3cc(-c4ccccc4)nn23)CC1
8.68 µM	Cc1cc(C(=O)N2CCN(c3cc(-c4ccco4)nc4cc(-c5ccccc5)nn34)CC2)c(C)o1
inactive	COc1cccc(-c2cc3nc(C)cc(N4CCN(C(=O)c5ccoc5)CC4)n3n2)c1

same assay, conditions: JC-1 efflux, at 50 µM (top of the series)

inhibition	SMILES
inactive	Cc1nc2cc(-c3cccc(F)c3)nn2c(N2CCN(C(=O)c3ccco3)CC2)c1C
inactive	COc1cccc(-c2cc3nc(C)c(C)c(N4CCN(Cc5ccco5)CC4)n3n2)c1
inactive	CC(=O)N1CCN(c2c(C)c(C)nc3cc(-c4ccc(F)cc4)nn23)CC1
inactive	COc1ccccc1-c1c(C)nn2c(N3CCN(C(=O)c4ccco4)CC3)cc(C)nc12
inactive	O=C(c1ccco1)N1CCN(c2cc(-c3ccccc3)nc3ncnn23)CC1
inactive	Cc1nn2c(N3CCN(C(=O)c4ccco4)CC3)cc(C(C)(C)C)nc2c1-c1ccc(Cl)cc1
